For 25 compounds, IC50 results are on record in patent US6875760B2 (Novo Nordisk A/S, priority 1999, dated 2005).

Each structure is given as a SMILES string.

The target of the test is T1, human glucagon receptor (Homo sapiens, UniProt P47871).
T1 construct: expressed in transfected cells; host or cells: BHK (baby hamster kidney) cells
In words: Glucagon Binding Assay (III). The settings on record: BHK cell membranes, WGA SPA beads, 125I-glucagon; read-out: Glu Bd Assay (III) IC50. Put shortly:
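Non-specific binding was set with 500 nM glucagon in this SPA-type binding assay using WGA beads. The receptor source was a membrane preparation, kept on ice or at 4 °C, from BHK cells transfected with the human receptor. Scintillation counts were taken after 4 hours of shaking and 8–48 hours of settling.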

T1 sequence (P47871 26-477): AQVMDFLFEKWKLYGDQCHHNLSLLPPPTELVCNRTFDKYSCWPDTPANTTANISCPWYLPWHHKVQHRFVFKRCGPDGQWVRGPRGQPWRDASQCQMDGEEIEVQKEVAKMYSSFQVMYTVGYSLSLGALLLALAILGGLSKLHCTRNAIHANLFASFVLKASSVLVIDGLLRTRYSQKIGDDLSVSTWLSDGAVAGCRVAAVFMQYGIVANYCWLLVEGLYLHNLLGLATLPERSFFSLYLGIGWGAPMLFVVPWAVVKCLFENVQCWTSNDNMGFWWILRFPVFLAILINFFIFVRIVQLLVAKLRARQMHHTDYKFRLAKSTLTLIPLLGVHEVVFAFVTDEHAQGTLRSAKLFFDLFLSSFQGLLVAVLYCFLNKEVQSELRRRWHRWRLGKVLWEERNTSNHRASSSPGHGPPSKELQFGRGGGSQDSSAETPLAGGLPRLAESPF

Broadly, the IC50 is the concentration at which inhibition is half-maximal. With `CS(=O)(=O)c1cccc(NC(=O)N(Cc2ccc(C(=O)NCCC(=O)O)cc2)c2ccc(C3CCCCC3)cc2)c1` [Example 469, 3-{4-[1-(4-Cyclohexylphenyl)-3-(3-methylsulfonylphenyl)ureidomethyl]benzoylamino}propionic acid], the IC50 was 631 nM.
Then `O=C(Nc1nn[nH]n1)c1ccc(CN(C(=O)Nc2cccc(S(=O)(=O)CC3CC3)c2)c2ccc(C3CCCCC3)cc2)cc1` [Example 470], with 116 nM; and `O=C(Nc1nn[nH]n1)c1ccc(CN(C(=O)Nc2cccc(S(=O)(=O)C3CCCC3)c2)c2ccc(C3CCCCC3)cc2)cc1` [Example 471], with 252 nM.
Under `C[S+]([O-])c1cccc(NC(=O)N(Cc2ccc(C(=O)Nc3nn[nH]n3)cc2)c2ccc(C3CCCCC3)cc2)c1` (stereo not shown) [Example 472, 4-[1-(4-Cyclohexylphenyl)-3-(3-methylsulfinylphenyl)ureidomethyl]-N-(2H-tetrazol-5-yl)benzamide] stands 255 nM; under `CC(C)(C)C1CCC(N(Cc2ccc(C(=O)Nc3nn[nH]n3)cc2)C(=O)c2cc3ccccc3s2)CC1` (stereo not shown) [Example 473, Benzo[b]thiophene-2-carboxylic acid (4-tert-butylcyclohexyl)-[4-(2H-tetrazol-5-ylcarbamoyl)benzyl]amide], 1500 nM; under `CC(C)(C)C1CCC(N(Cc2ccc(C(=O)Nc3nn[nH]n3)cc2)C(=O)C2=CCc3ccccc32)CC1` (stereo not shown) [Example 474, 3H-Indene-1-carboxylic acid (4-tert-butylcyclohexyl)-[4-(2H-tetrazol-5-ylcarbamoyl)benzyl]amide], 1260 nM.
In the case of `CC(C)(C)C1CCC(N(Cc2ccc(C(=O)Nc3nn[nH]n3)cc2)C(=O)c2cc3ccccc3o2)CC1` (stereo not shown) [Example 475, Benzofuran-2-carboxylic acid (4-tert-butylcyclohexyl)-[4-(2H-tetrazol-5-ylcarbamoyl)benzyl]amide], the IC50 was 886 nM.
Turning to `CC(C)(C)C1CCC(N(Cc2ccc(C(=O)Nc3nn[nH]n3)cc2)C(=O)/C=C/c2cccs2)CC1` (stereo not shown) [Example 476, 4-{[(4-tert-Butylcyclohexyl)-(3-thiophen-2-ylacryloyl)amino]methyl}-N-(2H-tetrazol-5-yl)benzamide], the IC50 worked out at 955 nM.
As for `O=C(Nc1nn[nH]n1)c1ccc(CN(CC(c2ccccc2)c2ccccc2)C(=O)/C=C/c2c(Cl)cccc2Cl)cc1` [Example 478, 4-{[[3-(2,6-Dichlorophenyl)acryloyl]-(2,2-diphenylethyl)amino]methyl}-N-(2H-tetrazol-5-yl)benzamide], the IC50 was determined as 2940 nM.
For `CC(C)(C)c1ccc(N(Cc2ccc(C(=O)Nc3nn[nH]n3)cc2)C(=O)/C=C/c2c(Cl)cccc2Cl)cc1` [Example 479, 4-({(4-tert-butylphenyl)-[3-(2,6-dichlorophenyl)acryloyl]amino}methyl)-N-(2H-tetrazol-5-yl)benzamide], the IC50 is 819 nM.
`O=C(Nc1nn[nH]n1)c1ccc(CN(C(=O)/C=C/c2c(Cl)cccc2Cl)c2ccc(C3CCCCC3)cc2)cc1` [Example 480, 4-({(4-Cyclohexylphenyl)-[3-(2,6-dichlorophenyl)acryloyl]amino}methyl)-N-(2H-tetrazol-5-yl)benzamide]: the IC50 worked out at 276 nM.
With `O=C(Nc1nn[nH]n1)c1ccc(CN(C(=O)c2cccc([N+](=O)[O-])c2)c2ccc(C3CCCCC3)cc2)cc1` [Example 481, 4-{[(4-Cyclohexylphenyl)-(3-nitrobenzoyl)amino]methyl}-N-(2H-tetrazol-5-yl)benzamide], the IC50 came to 1980 nM.
With `CSc1cccc(O)c1C(=O)N(Cc1ccc(C(=O)Nc2nn[nH]n2)cc1)c1ccc(C2CCCCC2)cc1` [Example 482, 4-{[(4-Cyclohexylphenyl)-(2-hydroxy-6-methylsulfanylbenzoyl)amino]methyl}-N-(2H-tetrazol-5-yl)benzamide], the IC50 turned out to be 302 nM.
As to `CS(=O)(=O)c1ccc(C(=O)N(Cc2ccc(C(=O)Nc3nn[nH]n3)cc2)c2ccc(C3CCCCC3)cc2)cc1` [Example 483, 4-{[(4-Cyclohexylphenyl)-(4-methylsulfonylbenzoyl)amino]methyl}-N-(2H-tetrazol-5-yl)benzamide], the IC50 is 1120 nM.
Then `O=C(Nc1nn[nH]n1)c1ccc(CN(C(=O)c2ccc(C3CCCCC3)cc2)c2ccc(C3CCCCC3)cc2)cc1` [Example 484, 4-{[(4-Cyclohexylphenyl)-(4-cyclohexylbenzoyl)amino]methyl}-N-(2H-tetrazol-5-yl)benzamide], with 505 nM; and `O=C(Nc1nn[nH]n1)c1ccc(CN(C(=O)c2ccc(OC(F)(F)F)cc2)c2ccc(C3CCCCC3)cc2)cc1` [Example 485, 4-{[(4-Cyclohexylphenyl)-(4-triflourmethoxybenzoyl)amino]methyl}-N-(2H-tetrazol-5-yl)benzamide], with 810 nM.
`CC(C)(C)C1CCC(N(Cc2ccc(C(=O)Nc3nn[nH]n3)cc2)C(=O)c2ccc(-c3ccccc3)cc2)CC1` (stereo not shown) [Example 487, Biphenyl-4-carboxylic acid (4-tert-butylcyclohexyl)-[4-(2H-tetrazol-5-ylcarbamoyl)benzyl]amide]: the IC50 was 523 nM.
Take `CC(C)(C)C1CCC(N(Cc2ccc(C(=O)Nc3nn[nH]n3)cc2)C(=O)c2ccc(C3CCCCC3)cc2)CC1` (stereo not shown) [Example 488, 4-{[(4-tert-Butylcyclohexyl)-(4-cyclohexylbenzoyl)amino]methyl}-N-(2H-tetrazol-5-yl)benzamide]: the IC50 was 98 nM.
Under `CC(C)(C)C1CCC(N(Cc2ccc(C(=O)Nc3nn[nH]n3)cc2)C(=O)c2ccc(OC(F)(F)F)cc2)CC1` (stereo not shown) [Example 489, 4-{[(4-tert-Butylcyclohexyl)-(4-triflourmethoxybenzoyl)amino]methyl}-N-(2H-tetrazol-5-yl)benzamide] stands 150 nM.
Take `CC(C)(C)C1CCC(N(Cc2ccc(C(=O)Nc3nn[nH]n3)cc2)C(=O)c2cc3cc(Cl)ccc3o2)CC1` (stereo not shown) [Example 490, 5-Chlorobenzofuran-2-carboxylic acid (4-tert-butylcyclohexyl)-[4-(2H-tetrazol-5-ylcarbamoyl)benzyl]amide]: the IC50 amounted to 136 nM.
`CC(Oc1ccc(Cl)cc1)C(=O)N(Cc1ccc(C(=O)Nc2nn[nH]n2)cc1)c1ccc(C2CCCCC2)cc1` (stereo not shown) [Example 491, 4-{[[2-(4-Chlorophenoxy)propionyl]-(4-cyclohexylphenyl)amino]methyl}-N-(2H-tetrazol-5-yl)benzamide]: the IC50 was found to be 264 nM.
For the compound `O=C(Nc1nn[nH]n1)c1ccc(CN(C(=O)Cc2cccc(OC(F)(F)F)c2)c2ccc(C3CCCCC3)cc2)cc1` [Example 492, 4-({(4-Cyclohexylphenyl)-[2-(3-trifluoromethoxyphenyl)acetyl]amino}methyl)-N-(2H-tetrazol-5-yl)benzamide], the IC50 came to 144 nM.
With `CC(Oc1ccc(OC(F)(F)F)cc1)C(=O)N(Cc1ccc(C(=O)Nc2nn[nH]n2)cc1)c1ccc(C2CCCCC2)cc1` (stereo not shown) [Example 493], the IC50 was determined as 880 nM.
Take `O=C(Nc1nn[nH]n1)c1ccc(CN(C(=O)c2cccc(Cl)c2)c2ccc(C3=CCCCC3)cc2)cc1` [Example 495, 4-({(4-Cyclohex-1-enylphenyl)-(3-chlorobenzoyl)amino}methyl)-N-(2H-tetrazol-5-yl)benzamide]: the IC50 was 306 nM.
On to `O=C(Nc1nn[nH]n1)c1ccc(CN(C(=O)Cc2ccc(F)cc2F)c2ccc(C3CCCCC3)cc2)cc1` [Example 496, 4-({(4-Cyclohexylphenyl)-[2-(2,4-difluorophenyl)acetyl]amino}methyl)-N-(2H-tetrazol-5-yl)benzamide], for which the IC50 amounted to 566 nM.
